Here are results for one molecule from US4619925A, “3-Propenyl cephalosporin derivatives” (priority 1985, dated 1986).

The subject of test [1] is Gp-Ia organisms (Gram-positive staphylococci sensitive to penicillin). The experiment in a line: In vitro activity, agar dilution, group of five strains. The test is classed as cell-based. The source says:
Each of these groups of organisms is constituted of five individual strains of microorganism. The Gp-Ia organisms are Gram-positive staphylococci which are sensitive to penicillin. The Gp-Ib organisms are Gram-positive staphylococci which are resistant to penicillin and produce penicillinase. The Gn-Ia organisms are Gram-negative bacteria which are sensitive to ampicillin and cephalothin. The Gn-Ib organisms are Gram-negative bacteria which are resistant to ampicillin and cephalothin.

The subject of test [2] is Gram-positive bacteria, Gram-negative bacteria and fastidious bacteria. The experiment in a line: Antibacterial activity (summary statement). The test is classed as cell-based.

Take `C/C=C\C1=C(C(=O)O)N2C(=O)C(NC(=O)[C@H](N)c3cccc(O)c3)[C@H]2SC1` (stereo partly shown) [BMY-28272, 7-[(D)-2-amino-2-(3-hydroxyphenyl)acetamido]-3-[(Z)-1-propenyl]-3-cephem-4-carboxylic acid]: in test [1], the “activity relative to BMY-28100” value is reported as “same as BMY-28100”; the “activity relative to cephalexin and cefaclor” value was “two or four times more active than cephalexin and cefaclor”. Further, in test [2], the “activity against Gram-positive bacteria” value is “strong activity against Gram-positive bacteria”; the “spectrum of activity against Gram-negative and fastidious bacteria relative to cephalexin and cefaclor” value was “improved spectrum of activity against Gram-negative bacteria and fastidious bacteria relative to cephalexin and cefaclor”.
